Values of other authors as cited in patent publication US11052154B2, “Ras protein degradation inducing molecule and pharmaceutical composition” (Tokyo University of Science Foundation, priority 2016, dated 2021).

Experiments:
β5i = β5i (Homo sapiens, UniProt P28062); conditions: Table 18, 20S immunoproteasome inhibitor; cited from earlier work
β2i = β2i (Homo sapiens, UniProt P40306); conditions: Table 18, 20S immunoproteasome inhibitor; cited from earlier work

Row | Compound | Others: immunoproteasome subunit inhibited (β5i) (β5i) | Others: immunoproteasome subunit inhibited (β2i) (β2i)
1 | COc1ccc(C[C@H](NC(=O)[C@H](C)NC(=O)CN2CCOCC2)C(=O)N[C@@H](Cc2ccccc2)C(=O)[C@@]2(C)CO2)cc1 [PR-957] | β5i is inhibited | –
2 | CCCC[C@@H](C=O)NC(=O)[C@H](CC(C)C)NC(=O)OCc1ccccc1 [IPSI-001] | – | β2i is inhibited
